Patent publication US20090143441A1, “Combination therapies of Thiazolidinedione analogues” (priority 2006, published 2009)
“Also recorded” adds a separate entry of the source.

What was measured:
PPARγ = target: T1, PPARγ (Homo sapiens, UniProt P37231); assay: Commercial PPARγ binding assay (Invitrogen, PPAR-LBD/Fluormone PPAR Green complex); settings: for Activation of PPARγ / PPARγ ligand binding (Fluormone displacement signal): average (SEM) of three experiments in quadruplicate; for Binding to PPARγ (in words): summary of FIG. 1 and Table B
T1 construct: purchased Invitrogen Corporation, Carlsbad, Calif
T1 sequence (P37231 238-503 limits assumed): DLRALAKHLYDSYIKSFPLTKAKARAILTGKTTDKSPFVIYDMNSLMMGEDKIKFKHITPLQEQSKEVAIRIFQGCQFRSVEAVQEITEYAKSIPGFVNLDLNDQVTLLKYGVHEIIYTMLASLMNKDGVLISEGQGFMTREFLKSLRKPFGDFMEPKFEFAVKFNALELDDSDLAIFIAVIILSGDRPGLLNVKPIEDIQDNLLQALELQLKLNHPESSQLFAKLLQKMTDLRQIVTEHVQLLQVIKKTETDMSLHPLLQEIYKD
Protocol: The ability of several exemplary compounds of the present invention, shown in Table A, to bind to PPARγ was measured using a commercial binding assay (Invitrogen Corporation, Carlsbad, Calif.) that measures the test compounds ability to bind with PPAR-LBD/Fluormone PPAR Green complex. These assays were performed on three occasions with each assay using four separate wells (quadruplicate) at each concentration of tested compound. The data in Table B are average and SEM of three experiments, each of which were performed in quadruplicate on separate days. […] Compounds were added at the concentrations shown, which range from 0.1-100 micromolar.

[1] = tested on: normal male Sprague-Dawley rats with Medrol-induced hypertension; assay: Prevention of Medrol-induced hypertension, mean blood pressure by direct femoral arterial cannulation; format: in vivo; settings: for Mean blood pressure, Fasted: after a 6 hour fast on day 8; for Mean blood pressure, Fasted / Mean blood pressure, Fed: daily dosing, Compound 1 40 mg/kg/day, Medrol 20 mg/kg/day, N=9, * p<0.05 less than Medrol-treated rats; for Mean blood pressure, Fed: fed conditions on day 7
Protocol: Hypertension was induced in normal male Sprague-Dawley rats by daily dosing with the glucocorticoid methylprednisolone (Medrol) for 8 days. Separate groups of rats received the vehicle (1% carboxymethylcellulose/0.01% Tween 20) by oral gavage and some of both the vehicle-treated and Medrol-treated rats also received daily doses of compound 1 as shown in Table C. Mean blood pressure was measured by direct femoral arterial cannulation under fed conditions on day 7 and after a 6 hour fast on day 8. The data are mean and (SEM) mean blood pressure obtained by direct cannulation. N=9; * p<0.05 less than blood pressure in Medrol-treated rats.

Structure (SMILES) | Activation of PPARγ (PPARγ; compound at 1 μM) | PPARγ ligand binding (Fluormone displacement signal) (PPARγ; compound at 3 μM) | PPARγ ligand binding (Fluormone displacement signal) (PPARγ; compound at 10 μM) | Activation of PPARγ (PPARγ; compound at 50 μM) | Activation of PPARγ (PPARγ; compound at 100 μM) | Activation of PPARγ (PPARγ; compound at .1 μM) | Activation of PPARγ (PPARγ; compound at .3 μM) | PPARγ ligand binding (Fluormone displacement signal) (PPARγ; compound at 50 μM) | PPARγ ligand binding (Fluormone displacement signal) (PPARγ; compound at 1 μM) | PPARγ ligand binding (Fluormone displacement signal) (PPARγ; compound at 100 μM) | Activation of PPARγ (PPARγ; compound at 10 μM) | PPARγ ligand binding (Fluormone displacement signal) (PPARγ; compound at .1 μM) | PPARγ ligand binding (Fluormone displacement signal) (PPARγ; compound at .3 μM) | Activation of PPARγ (PPARγ; compound at 3 μM) | Mean blood pressure, Fasted [1] | Mean blood pressure, Fed [1] | Antihypertensive action (in words) ([1]; hypertension generated by treatment with a glucocorticoid, FIG. 2 and Table C) | Binding to PPARγ (in words) (PPARγ)
CCc1ccc([C@H](O)COc2ccc(CC3(C)SC(=O)NC3=O)cc2)nc1 (some centres unmarked) [Compound 9] | 239 (13) | 233 (9) | 234 (12) | 189 (19) | 164 (20) | 237 (5) | 237 (4) |  |  |  |  |  |  |  |  |  |  | 
C[C@H]1C[C@@H]2[C@H]([C@@H](O)C[C@@]3(C)[C@H]2CC[C@]3(O)C(=O)CO)[C@@]2(C)C=CC(=O)C=C12 [Medrol, methylprednisolone, reference compound] |  |  |  |  |  |  |  |  |  |  |  |  |  |  | 122 | 123 |  | 
CCc1ccc([C@@H](O)COc2ccc(CC3(C)SC(=O)NC3=O)cc2)nc1 (some centres unmarked) [Compound 8] | 239 (5) | 241 (10) | 233 (7) |  | 186 (16) | 237 (6) | 243 (5) | 199 (15) |  |  |  |  |  |  |  |  |  | 
CCc1ccc(CCOc2ccc(CC3(C)SC(=O)NC3=O)cc2)nc1 (centres unmarked) [Compound 4] |  | 224 (15) | 200 (8) | 122 (21) |  | 236 (13) | 230 (14) |  | 234 (11) | 91 (11) |  |  |  |  |  |  |  | 
CCc1ccc(CCOc2ccc(CC3(C)SC(=O)NC3=O)cc2)nc1 (centres unmarked) [Compound 6] |  | 223 (7) | 198 (10) | 126 (17) |  |  |  |  | 233 (11) | 99 (12) |  | 246 (7) | 246 (9) |  |  |  |  | 
CCc1ccc(C(O)COc2ccc(CC3(C)SC(=O)NC3=O)cc2)nc1 (centres unmarked) [Compound 5] |  | 226 (8) | 212 (11) |  |  |  |  | 132 (12) | 228 (9) | 106 (7) |  | 235 (8) | 230 (10) |  |  |  |  | 
CCc1ccc([C@@H](O)COc2ccc(CC3SC(=O)NC3=O)cc2)nc1 (some centres unmarked) [Compound 2] |  |  | 223 (11) |  |  |  |  | 162 (8) | 238 (12) | 136 (11) |  | 231 (15) | 233 (15) | 236 (13) |  |  |  | particularly poor binders to PPARγ; also recorded: PPARγ-sparing compound

Now from value to compound, other results behind:

Activation of PPARγ (PPARγ; compound at 1 μM) | PPARγ ligand binding (Fluormone displacement signal) (PPARγ; compound at 3 μM) | PPARγ ligand binding (Fluormone displacement signal) (PPARγ; compound at 10 μM) | Activation of PPARγ (PPARγ; compound at 50 μM) | Activation of PPARγ (PPARγ; compound at 100 μM) | Activation of PPARγ (PPARγ; compound at .1 μM) | Activation of PPARγ (PPARγ; compound at .3 μM) | PPARγ ligand binding (Fluormone displacement signal) (PPARγ; compound at 50 μM) | PPARγ ligand binding (Fluormone displacement signal) (PPARγ; compound at 1 μM) | PPARγ ligand binding (Fluormone displacement signal) (PPARγ; compound at 100 μM) | Activation of PPARγ (PPARγ; compound at 10 μM) | PPARγ ligand binding (Fluormone displacement signal) (PPARγ; compound at .1 μM) | PPARγ ligand binding (Fluormone displacement signal) (PPARγ; compound at .3 μM) | Activation of PPARγ (PPARγ; compound at 3 μM) | Structure (SMILES) | Mean blood pressure, Fasted [1] | Mean blood pressure, Fed [1] | Antihypertensive action (in words) ([1]; hypertension generated by treatment with a glucocorticoid, FIG. 2 and Table C) | Binding to PPARγ (in words) (PPARγ)
240 (2) | 234 (3) |  |  |  | 245 (2) | 239 (2) | 126 (3) |  | 93 (3) | 219 (5) |  |  |  | CCc1ccc(C(=O)COc2ccc(CC3(C)SC(=O)NC3=O)cc2)nc1 (centres unmarked) [Compound 10] |  |  |  | 
 | 229 (10) | 165 (10) | 128 (30) |  |  |  |  | 232 (12) | 78 (3) |  | 230 (12) | 227 (9) |  | CCc1ccc(C(=CC(=O)OC)COc2ccc(CC3SC(=O)NC3=O)cc2)nc1 (centres unmarked) [Compound 11] |  |  |  | 
 |  |  | 88 (6) |  | 226 (17) |  |  | 203 (15) | 77 (7) | 134 (1) |  | 221 (10) | 185 (17) | CCc1ccc(C(=CC(=O)OC)COc2ccc(CC3SC(=O)NC3=O)cc2)nc1 (centres unmarked) [Compound 3] |  |  |  | 
198 (6) | 155 (8) | 112 (12) | 80 (2) |  |  | 222 (4) |  |  | 85 (3) |  | 243 (3) |  |  | CCc1ccc(C(COc2ccc(CC3SC(=O)NC3=O)cc2)CC(=O)OC)nc1 (centres unmarked) [Compound 12] |  |  |  | 
 |  |  | 174 (28) | 170 (35) | 227 (1) |  |  | 223 (12) |  | 207 (13) |  | 232 (8) | 228 (6) | CCc1ccc(C(=O)COc2ccc(CC3SC(=O)NC3=O)cc2)nc1 (centres unmarked) [Compound 1] | 108 | 108 | unexpected antihypertensive action; also recorded: significantly lowered blood pressure | particularly poor binders to PPARγ
248 (13) | 237 (7) | 210 (9) |  |  |  | 246 (5) | 144 (15) |  | 105 (10) |  | 249 (9) |  |  | CCc1ccc(CCOc2ccc(CC3(C)SC(=O)NC3=O)cc2)nc1 (centres unmarked) [Compound 7] |  |  |  | 
229 (20) |  | 204 (12) | 148 (23) | 108 (5) |  |  |  |  |  |  | 244 (9) | 243 (10) | 230 (13) | CCc1ccc(C(=CCO)COc2ccc(CC3SC(=O)NC3=O)cc2)nc1 (centres unmarked) [Compound 13] |  |  |  | 
